Measured values published in patent US4976960A, “Food supplements” (Bar Ilan University, priority 1986, dated 1990).
Several values for one entry are separate records, joined by “and”; a condition that tells them apart may be missing. Equal entries are not always repeated.

Legend:
peroxides in the skin = assay: Peroxide level in skin of adult mice (TBA test), topical application; type: in vivo; settings: 0.1% in Oil of Olay
Description: Samples of lotions and appropriate controls were applied to mice or rat skin for a fixed period. The application was done once a day. Experiments were terminated by killing the animal, peeling the skin and freezing it in liquid nitrogen. Samples of the frozen skin were homogenized in 0.2M phosphate buffer, pH 6.5. After centrifugation, the supernatant was collected and analyzed for the peroxide value using the TBA (thiobarbituric acid) test as described by Sinnhuber et al, Food Res. 23:620 (1958).
In these experiments adult mice (2 months old) were treated as described in Example 2. The grown mice were shaved before applying the lotions to the skin. In this experiment the antioxidant was dissolved in Oil of Olay. Mice were sacrificed after 21 days.

[1] = test system: peroxide level in the skin; assay: Malondialdehyde (MDA) level in epidermis of UV-irradiated hairless mice; type: in vivo, hairless mice (SKH/Hr); settings: for % decrease in MDA, mean / MDA, Treated Irradiated Site, mean / % decrease in MDA / MDA, Treated Irradiated Site: 5% in ethanol
Description: In this experiment, alpha-tocopheryl acetate and the present antioxidant were applied to the skin of hairless mice and the level of peroxide in the skin after exposure to UV radiation compared to a control group. The detailed procedure was as follows.
The malondialdehyde (MDA) assay is based on the methods of Dixit et al [J. Invest. Derm., 81: 369-75 (1983)], Tappel and Summerfield ["Measurement of and protection from in vivo lipid peroxidation", Free Radicals in Biology Vol. IV (1980). Academic Press, New York (W. A. Pryor, ed.)] and Placer et al [Analytical Biochemistry, 16:359-64 (1966)].
6-8week old hairless mice [(SKH/Hr); Skin and Cancer Hospital, Temple University, Philadelphia] were anesthetized using a 1:10 dilution of Sodium Pentobarbital (50 mg./ml., Elkins-Sinn. Inc.). The UV light sources were 2 fluorescent lamps (Westinghouse PS-40) and light intensity was measured with an Optometer (United Detector Technology) using a UVB filter. The tissue was homogenized using a Heat Systems model W-10 Sonicator, filtration and centrifugation of the homogenates being effected through a 2.5 micron Millipore filter and a Sorvall RC-5 Speed Centrifuge, respectively. The buffer consisted of 0.1M potassium phosphate, pH 7.4 with 10^-4 M magnesium chloride.
The protein assay is based on the method given in Clinical Chemistry, 23: 908 (1977). The modified biuret reagent contains per liter 3.8 g. CuSO4, 6.7 g. EDTA, 17.5 g. glycine, 14.0 g. NaCI and 40.0 g. NaOH. Absorbance was measured on an MS-2 Spectrophotometer (Micromedic Systems, Inc.).
20 mice were anesthetized with Sodium Pentobarbital (0.5 mg./10 g. body weight). Two rectangular areas, 6.25 cm.^2 each, were outlined on the dorsal and ventral sides of each mouse. The dorsal areas were designated as left dorsal (site A) and right dorsal (site B). The ventral areas were designated as left ventral (site C) and right ventral (site D). The products were applied in an aliquot of 75 ul. to the designated sites. The application protocol was randomized so that a given treatment was not restricted to the same area of the skin. One site on each dorsal and ventral side remained untreated to serve as the irradiated controls. 15 minutes after product application, the mice were exposed to 110 millijoules of UV light per cm.^2 of skin area over a period of 220 seconds per side. The mice were placed so that the area to be irradiated was directly under the light source while the areas on the other side were protected from the radiation. The mice were irradiated on both the dorsal and ventral sides. After UV treatment, the mice were returned to separate cages to recover from the anesthesia.
4 hours after irradiation, the mice were sacrificed by cervical dislocation. The skin was removed and stretched over a styrofoam block. The epidermis was separated from the dermis by heating the skin in a water bath for 60 seconds at 54° C. and then scraping the surface with a scalpel. Each 6.25 cm. area of epidermis was placed in a separate 1.5 ml. Eppendorf vial with 200 ul. of buffer. The pieces of epidermis were homogenized by sonication for 2×30 seconds, with a 10 second pause between each 30 second period to prevent heat buildup. The vial was kept in an ice bath.
After homogenization, 1 ml. of buffer was added to each vial and vortexed. The homogenate was filtered through a 2.5 micron filter, twice. An aliquot containing 1.4-1.8 mg. of homogenate protein was placed into test tubes with 0.6 ml. 10% trichloroacetic acid and 1.2 ml. 0.5% (w/v) 2-thiobarbituric acid. The test tube mixture was well vortexed and then placed in a boiling water bath for 10 minutes, the top of the test tube being covered with a marble which acted as a condensor. The tubes were cooled with running tap water and centrifuged for 15 minutes at 30,000×g. Blanks were prepared by placing 0.1M phosphate buffer in test tubes. All assays were done in duplicate. […]

[2] = test system: liver microsomal NADPH oxidase; assay: Liver microsomal NADPH oxidase activity in rabbits fed supplemented vitamin E deficient diet; type: in vivo; settings: after 30 days, vs basal vitamin E deficient diet
pyruvate oxidase = assay: Pyruvate oxidase activity in rabbits fed supplemented vitamin E deficient diet; type: in vivo; settings: after 30 days, vs basal vitamin E deficient diet
prostacyclin (PGI2) = assay: Endogenous release of prostacyclin by isolated aorta segments of fed rabbits; type: in vivo; settings: after 30 days, vs basal vitamin E deficient diet
Fibroblasts = assay: Lipid peroxidation in fibroblast culture, TBA assay; type: cell-based; settings: 0.01%, 3 days of incubation, 37° C.
Method: The possibility that the present antioxidant may serve as a substitute for vitamin E was also tested in tissue culture. Fibroblasts were grown in an appropriate medium for three days at a temperature of 37° C., (a) in absence of additive (control), (b) in presence of 0.01% vitamin E, and (c) in presence of 0.01% present (crude) antioxidant.

[3] = combined dorsal and ventral mean
[4] = ventral, individual samples 6-10

COc1ccc(O)c(C(C)(C)C)c1 [BHA, butylated hydroxy anisole]
effect on the level of peroxides in the skin (peroxides in the skin): no reduction of the level of peroxides was observed

CC(=O)Oc1c(C)c(C)c2c(c1C)CCC(C)(CCC[C@H](C)CCC[C@H](C)CCCC(C)C)O2 (stereo partly drawn) [alp. tocopheryl acetate, alpha-tocopheryl acetate]
effectiveness in reducing the level of peroxides in the skin ([1]; 1% antioxidant in Oil of Olay vs 5% alpha-tocopheryl acetate in ethanol): significantly less effective
% decrease in MDA, mean [1, 3]: 27.82%
MDA, Treated Irradiated Site, mean [1, 3]: 0.168 nM MDA/mg. protein
% decrease in MDA, mean ([1]; dorsal mean): 27.26%
MDA, Treated Irradiated Site, mean ([1]; dorsal mean): 0.165 nM MDA/mg. protein
% decrease in MDA ([1]; dorsal, individual samples 1-5): 34.78% and 39.77% and 22.92% and 12.75% and 26.10%
MDA, Treated Irradiated Site ([1]; dorsal, individual samples 1-5): 0.105 nM MDA/mg. protein and 0.103 nM MDA/mg. protein and 0.074 nM MDA/mg. protein and 0.308 nM MDA/mg. protein and 0.235 nM MDA/mg. protein
% decrease in MDA, mean ([1]; ventral mean): 28.38%
MDA, Treated Irradiated Site, mean ([1]; ventral mean): 0.172 nM MDA/mg. protein
% decrease in MDA [1, 4]: 42.41% and 28.95% and 23.17% and 22.39% and 25.00%
MDA, Treated Irradiated Site [1, 4]: 0.148 nM MDA/mg. protein and 0.189 nM MDA/mg. protein and 0.305 nM MDA/mg. protein and 0.027 nM MDA/mg. protein

Cc1c(C)c2c(c(C)c1O)CCC(C)(CCCC(C)CCCC(C)CCCC(C)C)O2 (stereo not drawn) [alpha tocopherol]
effect on the level of peroxides in the skin (peroxides in the skin): no reduction of the level of peroxides was observed

vitamin E
liver microsomal NADPH oxidase activity (enzymatic lipid peroxidation) [2]: decreased
pyruvate oxidase activity (enzymatic lipid peroxidation) (pyruvate oxidase): decreased
endogenous release of prostacyclin (PGI2), detected as 6-keto-PGF1-alpha (prostacyclin (PGI2)): significantly increased
Peroxide value (TBA assay) (Fibroblasts): 0.015

Cc1cc(C(C)(C)C)c(O)c(C(C)(C)C)c1 [BHT, butylated hydroxy toluene]
effect on the level of peroxides in the skin (peroxides in the skin): no reduction of the level of peroxides was observed
